Experimental data from US20260028334A1, “N-(3-(BENZO[B]THIOPHENE-2-CARBOXAMIDO)-PHENYL)-2,3-DIHYDROBENZO[B][1,4]DIOXINE-6-CARBOXAMIDE DERIVATIVES AND RELATED COMPOUNDS AS LACTATE/ATP PRODUCTION INHIBITORS FOR THE TREATMENT OF CANCER” (WMT Aktiengesellschaft, priority 2022, published 2026).

Assays:
[1] = target: p62 (Homo sapiens (Human), UniProt Q13501); test: Western Blot analysis of p62; type: cell-based; settings: HeLa cells, normoxic and hypoxic conditions; for p62: 24 hours, 10, 30 and 100 nM, also with Bafilomycin A, FIG. 5
Method: Western Blot analysis was used to detect amounts of specific protein in differently treated cells. Proteins are separated by size, transferred onto a nitrocellulose membrane and incubated with protein specific antibodies. The density of the observed band is proportional to the amount of the specific protein inside the cell.
Cells were plated at 4×10^6 (for hypoxia) or 3×10^6 (for normoxia) cells per […] plate in medium of high glucose DMEM (PAN) supplemented with 10% FBS (PAN), 2 mM glutamine-alanine (PAN), 2 mM pyruvate (Sigma) and 10 ml/L penicillin-streptomycin (PAN), and grown at 37° C. in […], 5% CO2 and 75% humidity. For hypoxia, cells were grown and treated in the Whitley H35 Hypoxystation (Don Whitley Scientific) at 37° C. in 0.5% O2, 5% CO2 and 75% humidity. Next day, the cells were treated with test compounds (FIG. 4: compounds of example 3/8 and 10 at concentrations 0.1, 0.3 and 1 μM, Bafilomycin A at 20 nM; FIG. 5: compounds of example 3/16, 3/8 and 10 at concentrations 10, 30 and 100 nM, Bafilomycin A at 20 nM), as well as with vehicle (DMSO) only, for 24 h. After 24 hours, the cells were washed with PBS and scraped to collect. The lysate was centrifuged at 2,000 rpm for 3 min at 4° C. The cell pellet was resuspended in 250 μl Lysis Buffer (20 mM Tris pH 7.8, 150 mM NaCl, 0.05% Tween20, 2 mM MgCl2, protease inhibitors (Roche), 1 mM NaF, 1 mM Na3VO4) and sonicated at 50% for 20 sec. The sample was centrifuged at 14,000 rpm for 4 min at 4° C. Protein concentration of the sample was measured using the DC Protein Assay Kit (Biorad, 5000112), 22 μg of protein extract per well was loaded onto a precast SDS page gel (Biorad, 1704273). Proteins were then transferred onto a PVDF-membrane (Biorad, 10026933) using Biorad Trans-Blot Turbo Transfer System. […] The chemiluminescence was measured using chemiluminescent substrate (#34580, Thermo Scientific).

[2] = tested on: Panc02 and SKOV3 cells; test: Assay for inhibition of ATP production (FIGS. 8A and 8B); type: cell-based; settings: 48 hours treatment, 1.5 to 10000 nM
Method: The assay determines the amount of ATP in cells in culture.
Cells were plated at 4,000 per well in 96-well plate in a medium of high glucose DMEM (PAN) supplemented with 10% FBS (PAN), 2 mM glutamine-alanine (PAN), 2 mM pyruvate (Sigma) and 10 mL/L penicillin-streptomycin and grown at 37° C. in 0.5% O2, 5% CO2 and 75% humidity. For hypoxia, cells were grown and treated in the Whitley H35 Hypoxystation (Don Whitley Scientific) at 37° C. in 0.5% O2, 5% CO2 and 75% humidity. The next day, cells were induced with test compounds (FIG. 1: compounds of examples 3/16, 3/8, 10 at 10000, 3333, 1111, 370, 123, 41, 14, 5 and 1.5 nM; FIGS. 8A and 8B: compounds of example 3/19, 30 and 30/2 at 10000, 3333, 1111, 370, 123, 41, 14, 5 and 1.5 nM), as well as with vehicle (DMSO) only, for 48 hours. After this time, the medium was removed from the cells and intracellular ATP levels were determined using the Promega CellTiter-Glo 2.0 assay protocol (Promega, G9241). To estimate the effect of compounds on the ATP production, sample values were compared to the values of DMSO only. IC50 values were generated by plotting the luciferase counts against compound concentration.

p62 protein levels ([1]; 24 hours, 0.1, 0.3 and 1 μM, FIG. 4)	p62 [1]	Structure (SMILES)	ATP production level [2]
dose-dependent reduction	dose-dependent reduction	O=C(Nc1ccc(F)c(NC(=O)c2cc3ccc(OCCCN4CCCC4)cc3s2)c1)c1ccc2c(c1)OCCO2 [3/8]	dose-dependent reduction
	dose-dependent reduction	Cc1ccc(NC(=O)c2ccc3c(c2)OCCO3)cc1NC(=O)c1cc2cccnc2s1 [3/16]	dose-dependent reduction
